Test results: US20230095509A1, “NON-FIBRILLAR HEMOGLOBIN S OLIGOMERS AND METHODS TO IDENTIFY MODULATORS OF HEMOGLOBIN S POLYMERIZATION” (REGENTS OF THE UNIVERSITY OF MINNESOTA, priority 2021, published 2023)
“Also recorded” adds a separate entry of the source.

Tests used:
[1] = test system: RBC from healthy donors (genotype HbAA); test: Microfluidic measurement of RBC oxygen saturation (Quantitative Absorption Cytometry, P50); type: cell-based, human; conditions: for P50 (hemoglobin oxygen binding affinity) relative to control: 500 μM, RBC from 4 healthy donors, 1 hr at 37C at 25% hematocrit, diluted to 1% hematocrit with drug, FIG. 10
Procedure: Measurement of hemoglobin oxygen saturation in RBC from 4 healthy donors (genotype HbAA). RBC at 25% hematocrit were incubated with 500 uM voxelotor, chlormezanone, gabazine, or DMSO (control) for 1 hr at 37C and then diluted to 1% hematocrit with drug.
Microfluidic Measurement of RBC Oxygen Saturation: The Quantitative Absorption Cytometry assay described previously (Di Caprio et al., 2019, Proc Natl Acad Sci USA 116, 25236-25242; Di Caprio et al., 2015, Proc Natl Acad Sci USA 112, 9984-9989), takes images of single red blood cells (RBC) under alternating 410 nm and 430 nm LEDs. Due to the unique absorption spectra of oxy and deoxy hemoglobin the transmitted light at 410 nm and 430 nm permits measurement of the single cell saturation can be calculated. The cells are perfused through a microfluidic device with oxygen control that permits measurement of the oxygen saturation of a population of RBC under defined oxygen tension. The polydimethysiloxane (PDMS) microfluidic device for this assay comprises two layers- a gas layer and a blood layer bonded to a glass coverslip. These two layers are separated by 100 μm of PDMS. The gas layer allows for precise control of oxygen tension that will diffuse to the blood layer; the blood layer contains a 30 mm diffusion section to allow red blood cells to reach steady state saturation and a 5 mm observation section to imaging RBCs.
To prepare RBC for measurement, blood samples were washed and resuspended in 10% w/v BSA in PBS, and 0.5 μL of 100 mM therapeutic in DMSO was added to the sample. The sample was then incubated on a shaker plate at 37° C. for one hour. After incubation samples were washed again and 10 μL packed red blood cells was added to a solution of 288 μL 25% Human Serum Albumin (HAS) solution (Gemini Bio).
In this assay, we prepared samples identically to the preparation for blood flow by incubating with drug at 25% hematocrit, and then we diluted the samples to 1% hematocrit with […] drug in the dilution buffer.

[2] = target: T1, deoxyHbS oligomers (HbS-rhodamine red / HbS-Cy5) (Homo sapiens, UniProt P68871+P69905, E7V); test: Fluorescence lifetime (FLT) FRET assay of deoxyHbS oligomerization (LOPAC screen and dose response); type: biochemical; conditions: for FRET efficiency in dose response: 0.1 to 1000 μM, 2 hours at room temperature, then degassed, FIG. 4B; for FRET efficiency of HbS under deoxy conditions: known polymerization inhibitors as controls, FIG. 1D
T1 construct: purchased Sigma
Procedure: Development of HTS platform for identification of small molecules that inhibit in vitro HbS nucleation: Sickle hemoglobin (HbS) (sigma) was labeled with either fluorescent donor (rhodamine red) or acceptor (Cy5) dyes (Thermo fisher scientific) via a cysteine thiol group. For labeling, lyophilized HbS (10 mg/ml) was dissolved in PBS (Sigma) and then centrifuged at 13000 g for five minutes at 4° C. to remove the debris. After centrifugation protein sample was incubated with TCEP (0.5-1 mM) for 20 minutes at room temperature to reduce the cysteine side-chain. This protein mixture was incubated with 1.5 mM dye (dissolved in DMSO or water) for two hours in the dark at room temperature or overnight at 4° C. Unreacted free dye was removed by dialysis against PBS. The degree of labeling was calculated by comparing the absorption of the fluorophore conjugated hemoglobin at 280 nm to the absorbance of the dye at its maximum wavelength. The dye concentration was measured by absorbance, using extinction coefficients of 250,000 M −1 cm -1 for Cy5 conjugates and 88000 M −1 cm -1 for Rhodamine Red conjugates.
High-Throughput Screening of LOPAC Library to Identify Compounds That Inhibit HbS Oligomerization Under Deoxy Condition: The LOPAC compounds (Thermo Fisher Scientific) were received in 96-well plates. Assay plates were prepared by transferring 5 nL of the 10 mM compound stocks or DMSO from the source plates to 1536-well black polypropylene plates (Greiner), using an Echo 550 acoustic dispenser (Labcyte). During screening, donor sample (HbS/Rhodamine Red) was mixed with acceptor (HbS/Cy5) at 1:5 ratios. Then protein samples were dispensed (5 μL, 25 μM) by a Multidrop Combi Reagent Dispenser (Thermo Fisher Scientific) into the 1536-well assay plates containing the compounds and incubated at room temperature for two hours. After incubation, protein samples were degassed for 10-15 minutes using vacuum argon degassing method. Lifetime measurements were taken by the fluorescence lifetime plate reader (Fluorescence Innovations, Inc).
Fluorescence Data Acquisition: We tested the functionality of the HbS FRET pair by measuring lifetimes of oxy-and deoxy HbA and HbS using a fluorescence lifetime plate reader (FIG. 3A). Lifetimes are reciprocally related to FRET, so a decrease in lifetime corresponds to an increase in FRET. Donor fluorescence was excited with a 532 nm laser (Teem Photonics SNG-20F-100, Meylan, France), delivering pulses of -0.3 μJ energy at a 20 kHz repetition rate, and emission was filtered with 546 nm long pass and 586/20 nm band pass filters. This filter was selected to exclude acceptor fluorescence, as only the lifetime of the donor fluorescent protein is required to calculate FRET (Equation (1)). The photomultiplier tube (PMT) voltage was adjusted so that the peak signals of the instrument response function (IRF) and FRET biosensor were similar.
High-Throughput Screening Data Analysis: Time resolve-fluorescence waveforms for each well were fitted with single-exponential decays using least-squares minimization global analysis software (Petersen et al., F2014, Rev Sci Instrum 85, 113101). FRET efficiency (E) was determined as the fractional decrease of donor lifetime (T_D ), due to the presence of acceptor fluorophore (T_DA) using equation 1: […]
These drug compounds were dissolved in DMSO to make 20 mM stock solution. Hits were screened at seven different concentrations. Protein samples were dispensed into the 96-well assay plates and incubated with hit compounds at room temperature for two hours. After incubation, protein samples were degassed for 10 minutes using vacuum argon degassing method. Lifetime measurements were taken by the fluorescence lifetime plate reader (Fluorescence Innovations, Inc).

Row | FRET efficiency of HbS under deoxy conditions [2] | FRET efficiency of HbS under deoxy conditions ([2]; listed as Voxelotor) | Structure (SMILES) | P50 (hemoglobin oxygen binding affinity) relative to control [1] | IC50 [2] | FRET efficiency in dose response [2] | effect on FRET efficiency in the LOPAC pilot screen ([2]; LOPAC screen, mean of three independent screens, FIG. 4A) | modification of hemoglobin ([1]; samples diluted to 1% hematocrit with drug in the dilution buffer)
1 | – | – | CN1C(=O)CCS(=O)(=O)C1c1ccc(Cl)cc1 (stereo not shown) [chlormezanone] | neither chlormezanone nor gabazine significantly shifted P50; also recorded: no significant (p>0.05) change in P50 | > 100 µM | decreased FRET efficiency in a dose-dependent manner | by far the largest effect | –
2 | – | – | COc1ccc(-c2ccc(=N)n(CCCC(=O)O)n2)cc1 [gabazine] | neither chlormezanone nor gabazine significantly shifted P50; also recorded: no significant (p>0.05) change in P50 | – | decreased FRET efficiency in a dose-dependent manner | – | –
3 | decreased the FRET efficiency | reduced FRET efficiency | CC(C)n1nccc1-c1ncccc1COc1cccc(O)c1C=O [voxelotor] | significantly (p<0.05) decreases P50; also recorded: large shift in P50; also recorded: significantly decreased the P50 | – | – | – | ~100%
